# Experimental data reported in patent publication US10399986B2, “Inhibitors of leukotriene A4 hydrolase” (CELTAXSYS, INC., priority 2013, dated 2019).
# Where “and” joins values, the source holds several entries; their conditions need not be identical. Equal values may be shown once. Read-outs that look alike come from different tables or passages of the source.
# Columns and labels:
# LTA4-h [1] = biological target: T1, LTA4-h (Homo sapiens, UniProt P09960); assay: hydrolase assay; format: biochemical
# T1 sequence (P09960 1-611): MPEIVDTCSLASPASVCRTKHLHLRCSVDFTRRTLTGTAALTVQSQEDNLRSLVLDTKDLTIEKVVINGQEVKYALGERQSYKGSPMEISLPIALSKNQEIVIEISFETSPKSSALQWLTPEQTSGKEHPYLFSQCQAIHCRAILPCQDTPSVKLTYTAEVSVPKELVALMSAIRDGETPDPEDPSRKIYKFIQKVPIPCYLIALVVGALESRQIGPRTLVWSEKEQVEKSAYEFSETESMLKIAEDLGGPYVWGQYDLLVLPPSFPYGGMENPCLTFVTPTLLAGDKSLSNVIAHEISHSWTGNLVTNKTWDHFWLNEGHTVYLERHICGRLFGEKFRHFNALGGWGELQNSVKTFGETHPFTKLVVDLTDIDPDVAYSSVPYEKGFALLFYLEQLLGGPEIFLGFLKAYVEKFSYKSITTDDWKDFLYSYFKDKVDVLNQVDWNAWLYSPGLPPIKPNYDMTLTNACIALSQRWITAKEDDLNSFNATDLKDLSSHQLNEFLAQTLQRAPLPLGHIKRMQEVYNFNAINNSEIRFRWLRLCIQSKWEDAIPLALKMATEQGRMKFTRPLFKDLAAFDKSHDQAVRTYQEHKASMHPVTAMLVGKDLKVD
# Excerpt: The compounds of the invention can be tested for their ability to inhibit LTA4-h by various known assays and by assays described herein. For example, the compounds can be tested for their ability to inhibit LTA4-h activity by assaying the compounds in the hydrolase-homogeneous time resolved fluorescence assay. This assay, which is a two-step assay, measures the hydrolysis of […] by analyzing the amount of LTB4 produced. The first step involves the enzymatic conversion of […] and the second step involves the quantification of the […] formed with a homogeneous time resolved fluorescence assay.
# (§1) The whole blood and aminopeptidase assays were performed as described in Penning et al., J. Med. Chem. 2000, 43, 721-735, and Rudberg et al., J. Biol. Chem. Vol. 279, No. 26, Issue of June 25, pp. 27376-27382, 2004, the contents of each of which are expressly incorporated by reference herein. The hydrolase assay was performed as described in U.S. Pat. No. 7,737,145, the contents of which are expressly incorporated herein.
# LTA4-h [2] = biological target: T1, LTA4-h; assay: peptidase (aminopeptidase) assay; format: biochemical
# Excerpt: Since LTA4-h hydrolase is grouped with the M1 family of zinc metalloproteases (see, Rudberg, P. C. et al., J. Biol. Chem. 2002, Vol. 277, page 1398-1404), the compounds of the invention can be tested in the standard hydrolase and peptidase assay to determine the compounds' kinetic constants for binding to LTA4-h hydrolase and for inhibiting LTB4 synthesis (see Askonas, L. J., et al., The Journal of Pharmacology and Experimental Therapeutics 2002, 300(2): 577-582; Penning, T. D., J. Med. Chem. 2000, 43(4): 721-735; Kull, F. et al., The Journal of Biological Chemistry 1999, 274 (49): 34683-34690, the contents of which are expressly incorporated by reference herein).
# as §1
# LTA4-h hydrolase = biological target: T2, LTA4-h hydrolase (Homo sapiens, UniProt P09960); assay: whole blood assay (WBA); format: cell-based
# T2 construct: whole blood assay using human, mouse, rat or dog whole blood; from tissue; host or cells: whole blood
# T2 sequence (P09960 1-611): T1 sequence (P09960 1-611)
# Method: Compounds of the invention can also be tested for their ability as inhibitors of LTA4-h hydrolase in the whole blood assay using human, mouse, rat or dog whole blood (see Penning, T. D. et al., J. Med. Chem. (2000), 43(4): 721-735 for a description of a human whole blood assay and a mouse whole blood assay, the contents of which are expressly incorporated herein).
# as §1
# [3] = system: ionophore-induced LTB4 production; conditions: oral administration; mouse blood ex vivo; cited from earlier work
# cotton top tamarins = conditions: eight weeks of treatment; cited from earlier work
# [4] = system: ionophore-induced LTB4 production; conditions: oral administration; rat peritoneum in vivo; cited from earlier work
IC50 (LTA4-h [2]),IC50 (LTA4-h [1]),IC50 (LTA4-h hydrolase),Molecule,further results
280 nM,1500 nM,> 8800 nM,N#Cc1c(Nc2ccc(Oc3ccccc3)cc2)nn2cc(N)cnc12 [Compound 1],
260 nM,3700 nM,> 7200 nM,CS(=O)(=O)c1ccc(-c2cnc3c(C#N)c(Nc4ccc(Oc5ccccc5)cc4)nn3c2)c([N+](=O)[O-])c1 [Compound 2],
430 nM,,> 10000 nM,N#Cc1c(Nc2ccc(Oc3ccccc3)cc2)nn2cc(-c3cc(C(=O)O)ccc3[N+](=O)[O-])cnc12 [Compound 3],inhibition at 3 µM (LTA4-h [1]): 39%
1700 nM,,,N#Cc1c(Nc2ccc(Oc3ccccc3)cc2)nn2cc(C(=O)c3cc([N+](=O)[O-])ccc3O)cnc12 [Compound 4],inhibition at 3 µM (LTA4-h [1]): 48%
90 nM and 20 nM,1400 nM and 490 nM,4900 nM and 3000 nM,N#Cc1c(Nc2ccc(Oc3ccccc3)cc2)nn2cc(C(=O)c3ccccc3O)cnc12 [Compound 5],
960 nM,,,N#Cc1c(Nc2ccc(Oc3ccccc3)cc2)nn2cc(C(=O)c3cc(Cl)cc(Cl)c3O)cnc12 [Compound 6],inhibition at 3 µM (LTA4-h [1]): 15%
30 nM and 10 nM,1600 nM and 2900 nM,4600 nM and 3000 nM,N#Cc1c(Nc2ccc(Oc3ccccc3)cc2)nn2cc(C(=O)c3cc(Cl)ccc3O)cnc12 [Compound 7],
120 nM,,,N#Cc1c(Nc2ccc(Oc3ccccc3)cc2)nn2cc(-c3ccc(C(=O)O)cc3[N+](=O)[O-])cnc12 [Compound 10],inhibition at 1 µM (LTA4-h [1]; at 1 uM): 20%
270 nM,,,N#Cc1c(Nc2ccc(Oc3ccccc3)cc2)nn2cc(-c3cccc(C(=O)O)n3)cnc12 [Compound 11],
84 nM,,,N#Cc1c(Nc2ccc(Oc3ccccc3)cc2)nn2cc(-c3ccc(C(=O)O)cn3)cnc12 [Compound 12],
,,,CN(CCCOc1ccc(Cc2ccccc2)cc1)CCC(=O)O.Cl [SC57461],inhibition of ionophore-induced LTB4 production [3]: caused inhibition; colitis symptoms (cotton top tamarins): significantly improved colitis symptoms; inhibition of ionophore-induced LTB4 production [4]: caused inhibition

Molecule,IC50 (LTA4-h [2]),IC50 (LTA4-h [1]),IC50 (LTA4-h hydrolase),further results
"2-(4-phenoxyphenylamino)-3-cyano-6-(2-nitro-3-hydroxycarboxyphenyl)pyrazolo[1,5-a]pyrimidine [Compound 9]",3.3 nM,,,Hydrolase % inhibition (LTA4-h [1]; at 1 uM): 20% inhibition at 1 uM
